# Like-named read-outs stand apart in the source and are kept apart here.
# Legend:
# TXNIP [1] = test: Western blot of TXNIP expression in cancer cells (SaOS2, RGC); assay type: cell-based; conditions: for expression of TXNIP: increasing concentrations, Western blot
# Procedure: (§1) SaOS2 cells were incubated in the presence of reduced glucose levels in the culture medium for 48 hours. Expression of TXNIP and Sirt1 were determined by Western blot using specific antibodies. Antibody to _-Actin was used as a loading control.
# (§2) The RGC (4C) and SaOS2 (4D) cells were subjected to treatment with increasing concentrations of resveratrol (Resv.) for 48 hours followed by Western blot as described in Panel A.
# (§3) SaOS2 cells were treated with increasing amounts of DHEA and probed for expression of Sirt1 and TXNIP; beta-actin was used as a loading control.
# The cells were treated with different concentrations of glucose with or without DHEA. After 48 hours in cultures, proteins were separated by electrophoresis and probed for TXNIP. Staining with beta-actin antibody was used as a loading control.
# (§4) The effects of limited glucose availability (used here to mimic the effect of calorie restriction), resveratrol (an activator of Sirt1) and DHEA (used for hormone replacement therapy), on the expression of TXNIP and Sirt1 were determined by Western blot using specific antibodies to the corresponding proteins (FIG. 4).
# Sirt1 [2] = assay type: cell-based; conditions: increasing concentrations, Western blot
# Procedure: as §1, §2, §3, §4
# TXNIP [3] = test: Western blot of TXNIP expression in aortic smooth muscle cells; assay type: cell-based
# Procedure: (§5) Effects of limited glucose availability, resveratrol and DHEA on expression of TXNIP and Sirt1 in normal cells. Aortic smooth muscle cells (4A) and human embryonic stem cells (4B) were treated as described in FIG. 1 for cancer cells. Expression Sirt1 and TXNIP were analyzed by Western blot using specific antibodies. Antibody to GAPDH was used as loading control. (Glc: glucose; Resv: Resveratrol).
# (§6) In order to obtain information on the physiological relevance of targeting Sirt1 and TXNIP in normal tissues, we investigated the effect of limited glucose availability, resveratrol and DHEA in differentiated aortic smooth muscle cells, and non-differentiated, human embryonic stem cells.
# Sirt1 [4] = assay type: cell-based; conditions: aortic smooth muscle cells, Western blot
# Procedure: as §5, §6
# TXNIP [5] = test: Western blot of TXNIP expression in human embryonic stem cells BG01V; assay type: cell-based
# Procedure: as §5
# (§7) To test whether cellular proliferative capacity may account for this difference, we measured expression of Sirt1 and TXNIP in embryonic stem cells known for rapid self renewal ability. The human embryonic stem cells, BG01V, were subjected to glucose restriction or treatment with either resveratrol or DHEA under similar conditions to those described in FIG. 4. […] In contrast, the consistent inhibition of TXNIP by limited glucose availability in cancer cells as well as in differentiated smooth muscle cells and non-differentiated stem cells, is indicative of a potential role of this gene in mediating the anti-aging action of calorie restriction.
# Sirt1 [6] = test: Western blot of Sirt1 expression in human embryonic stem cells BG01V; assay type: cell-based
# Procedure: as §5, §7
# TXNIP [7] = test: TXNIP expression in organs of treated mice (Western blot); assay type: in vivo; conditions: CD1 mice, 10 mg/Kg i.p., 2 days
# Procedure: (§8) Tissue distribution of Sirt1 and TXNIP in mice and their regulation by resveratrol and DHEA. Mice CD1 strain were injected (i.p.) with 10 mg/Kg of either resveratrol or DHEA and after 2 days, the animals were sacrificed and organs harvested and processed by Western blot for the expression of Sirt1 and TXNIP. Staining with GAPDH was used as a loading control.
# (§9) In order to determine whether the observed effects in vitro could be also valid in vivo, we have subjected the nude mice (CD1 strain, Charles River) to treatment with either resveratrol or DHEA (10 mg/Kg each) for 2 days. The animals were then sacrificed and major organs harvested to analyze expression of Sirt1 and TXNIP by Western blot.
# Sirt1 [8] = test: Sirt1 expression in organs of treated mice (Western blot); assay type: in vivo; conditions: CD1 mice, 10 mg/Kg i.p., 2 days
# Procedure: as §8, §9
# AMPK = test: Phosphorylation of AMPK in cells (Western blot, anti-phospho-AMPK Thr172); assay type: cell-based; conditions: for AMPK phosphorylation: osteosarcoma cells SaOS2, 48 hours
# Procedure: SaOS2 cells were treated with increasing concentrations of resveratrol for 48 hours, after what, proteins were extracted and probed either with anti-phospho-AMPK (Thr172), or with antibody to AMPK.
# RGC cells were incubated with 20 or 100 μM resveratrol or DHEA 100 μM for 48 hours, and then probed for phosphor-AMPK and AMPK as described above.
# However, the relevance of this action to the regulation of TXNIP by resveratrol and the possible implication of DHEA in regulating this pathway are not yet investigated. […] Further confirmation of this link will help establish TXNIP inhibition as an important determinant for evaluating the efficacy of putative anti-aging interventions.
# [9] = molecular target: glucose 6 phosphate dehydrogenase, G6PD (Homo sapiens, UniProt P11413); test: G6PD activity in protein extract (NADPH production); conditions: 30 min at 37° C.; for activity of G6PD: protein extract 100 ug
# Chain of glucose 6 phosphate dehydrogenase, G6PD (P11413 whole entry): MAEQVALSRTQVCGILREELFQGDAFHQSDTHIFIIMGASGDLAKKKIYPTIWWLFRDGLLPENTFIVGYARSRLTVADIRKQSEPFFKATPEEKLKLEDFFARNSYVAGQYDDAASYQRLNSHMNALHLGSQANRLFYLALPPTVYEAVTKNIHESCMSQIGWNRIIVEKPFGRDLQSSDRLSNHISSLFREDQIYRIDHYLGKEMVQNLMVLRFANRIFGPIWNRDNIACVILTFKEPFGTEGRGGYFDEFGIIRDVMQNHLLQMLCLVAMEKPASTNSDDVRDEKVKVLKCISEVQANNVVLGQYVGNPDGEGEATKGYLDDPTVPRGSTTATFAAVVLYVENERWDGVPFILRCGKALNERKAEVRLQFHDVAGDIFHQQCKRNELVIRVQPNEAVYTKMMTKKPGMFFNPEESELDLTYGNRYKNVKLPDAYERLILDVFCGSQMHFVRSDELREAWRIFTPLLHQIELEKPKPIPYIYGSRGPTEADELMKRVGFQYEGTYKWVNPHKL
# Procedure: Protein extract (100 _g) was incubated with DHEA or resveratrol at the indicated concentrations, after 30 min at 37° C., the activity of G6PD was measured as described in the methods section.
# [10] = retinal glial cells (RGC), 48 hours
SMILES,expression of TXNIP (TXNIP [1]; SaOS2 cells),"effects of glucose on TXNIP expression after pre-treatment (TXNIP [1]; cells with different concentrations of glucose with or without DHEA, 48 hours)",expression of Sirt1 (Sirt1 [2]; SaOS2 cells),expression of TXNIP (TXNIP [3]),expression of Sirt1 (Sirt1 [4]),expression of TXNIP (TXNIP [5]),expression of Sirt1 (Sirt1 [6]),expression of TXNIP in the lung (TXNIP [7]),expression of TXNIP in the muscle (TXNIP [7]),expression of Sirt1 in most tissues (Sirt1 [8]),AMPK phosphorylation (AMPK),activity of G6PD [9],"inhibitory effect on G6PD observed ([9]; protein extract, assay based on production of NADPH) [%]","expression of TXNIP (TXNIP [1]; RGC cells, 48 hours)","expression of Sirt1 (Sirt1 [2]; RGC cells, 48 hours)",AMPK phosphorylation (p-AMPK) (AMPK; [10]),expression of AMPK (AMPK; [10])
"C[C@]12CC[C@H](O)CC1=CC[C@@H]1[C@@H]2CC[C@]2(C)C(=O)CC[C@@H]12 [DHEA, dehydroepiandrosterone]",decreased expression,almost completely blocked,decreased expression,without effect,without effect,none of these genes was affected,none of these genes was affected,inhibited the expression,inhibitory effect,not significantly affect,without effect,strongly inhibited and in a dose dependent manner,50,,,,
Oc1ccc(C=Cc2cc(O)cc(O)c2)cc1 [resveratrol],stimulatory action at low concentrations and inhibition at higher ones,,suppressed the expression,inhibited the expression of TXNIP in a dose dependent manner,no significant changes in Sirt1 expression,none of these genes was affected,none of these genes was affected,inhibited the expression,only DHEA had an inhibitory effect in the muscle,not significantly affect,induced AMPK phosphorylation,no effect,,stimulatory action at low concentrations and inhibition at higher ones,suppressed the expression,readily activates,without affecting expression

# Reference: patent publication US20100272710A1, “COMPOSITIONS AND METHODS FOR TREATING AND PREVENTING AGING-ASSOCIATED DISEASES” (priority 2009, published 2010)
